Source: PubChem BioAssay AID248 (DTP/NCI, 2004)
Several values for one entry are separate records, joined by “and”; a condition that tells them apart may be missing. Equal values may be shown once. Toxic doses and inconclusive results are not listed. Rule as the data show it: active = T/C of 150% or more; inactive = T/C below 125%.

Tested on: L1210 leukemia ip in BDF1 mice, survival T/C
Assay: NCI In Vivo Anticancer Drug Screen. Data for tumor model L1210 Leukemia (intraperitoneal) in B6D2F1 (BDF1) mice
Details: endpoint: mean survival time, higher = longer survival
Method in brief: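 Value reflects the ratio of survival in compound-treated mice to survival in vehicle-treated controls, with both groups carrying the same transplanted tumor.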

[1] = dose: 50.0 mg/kg/injection, schedule: Q01DX009 (ip), vehicle: saline with Tween-80
[2] = dose: 100.0 mg/kg/injection, schedule: Q01DX009 (ip), vehicle: saline with Tween-80
[3] = dose: 200.0 mg/kg/injection, schedule: Q01DX009 (ip), vehicle: saline with Tween-80
[4] = dose: 100.0 mg/kg/injection, schedule: Q04DX003 (ip), vehicle: saline with Tween-80
[5] = dose: 200.0 mg/kg/injection, schedule: Q04DX003 (ip), vehicle: saline with Tween-80
[6] = dose: 400.0 mg/kg/injection, schedule: Q01DX009 (ip), vehicle: saline with Tween-80
[7] = dose: 400.0 mg/kg/injection, schedule: Q04DX003 (ip), vehicle: saline with Tween-80
[8] = dose: 100.0 mg/kg/injection, schedule: Q01DX001 (ip), vehicle: Klucel (hydroxypropylcellulose) (HPC)
[9] = dose: 200.0 mg/kg/injection, schedule: Q01DX001 (ip), vehicle: Klucel (hydroxypropylcellulose) (HPC)
[10] = dose: 100.0 mg/kg/injection, schedule: Q01DX009 (ip), vehicle: Klucel (hydroxypropylcellulose) (HPC)
[11] = dose: 200.0 mg/kg/injection, schedule: Q01DX009 (ip), vehicle: Klucel (hydroxypropylcellulose) (HPC)
[12] = dose: 400.0 mg/kg/injection, schedule: Q01DX009 (ip), vehicle: Klucel (hydroxypropylcellulose) (HPC)
[13] = dose: 1.56 mg/kg/injection, schedule: Q01DX009 (ip), vehicle: saline
[14] = dose: 3.12 mg/kg/injection, schedule: Q01DX009 (ip), vehicle: saline
[15] = dose: 100.0 mg/kg/injection, schedule: Q04DX003 (ip), vehicle: Klucel (hydroxypropylcellulose) (HPC)
[16] = dose: 200.0 mg/kg/injection, schedule: Q04DX003 (ip), vehicle: Klucel (hydroxypropylcellulose) (HPC)
[17] = dose: 400.0 mg/kg/injection, schedule: Q04DX003 (ip), vehicle: Klucel (hydroxypropylcellulose) (HPC)
[18] = dose: 200.0 mg/kg/injection, schedule: Q01DX001 (ip), vehicle: other
[19] = dose: 100.0 mg/kg/injection, schedule: Q04DX003 (ip), vehicle: saline
[20] = dose: 200.0 mg/kg/injection, schedule: Q04DX003 (ip), vehicle: saline

Measured: T/C

O=C(CNC(=O)Nc1cccc(Cl)c1)N/N=C/c1cccc([N+](=O)[O-])c1
inactive: [1] 98 % of control | [2] 95 % of control | [3] 98 % of control

COc1cc(C(=O)O)c(Br)c(OC)c1OC
inactive: dose: 100.0 mg/kg/injection, schedule: Q01DX001 (ip), vehicle: saline with Tween-80 103 % of control | dose: 200.0 mg/kg/injection, schedule: Q01DX001 (ip), vehicle: saline with Tween-80 101 % of control | dose: 400.0 mg/kg/injection, schedule: Q01DX001 (ip), vehicle: saline with Tween-80 114 % of control

O=C1/C(=C/c2ccccc2)Cc2ccccc21
inactive: [2] 95 % of control | [4] 101 % of control | [3] 95 % of control | [5] 95 % of control | [6] 95 % of control | [7] 109 % of control

O=[N+]([O-])c1cccc(/C(Cl)=C/CCl)c1
inactive: dose: 50.0 mg/kg/injection, schedule: Q01DX001 (ip), vehicle: Klucel (hydroxypropylcellulose) (HPC) 98 % of control | [8] 101 % of control | [9] 97 % of control

CN(C)CCCNc1c2ccccc2nc2ccccc12
inactive: dose: 5.0 mg/kg/injection, schedule: Q01DX001 (ip), vehicle: saline 109 % of control | dose: 10.0 mg/kg/injection, schedule: Q01DX001 (ip), vehicle: saline 104 % of control | dose: 20.0 mg/kg/injection, schedule: Q01DX001 (ip), vehicle: saline 98 % of control | dose: 40.0 mg/kg/injection, schedule: Q01DX001 (ip), vehicle: saline 91 % of control

COC(=O)c1ccccc1C(=O)Nc1cc(C(F)(F)F)ccc1Cl
inactive: [10] 100 % of control | [11] 103 % of control | [12] 100 % of control

O=C1NC(c2ccccc2)C(=O)NC1c1ccccc1 (stereo not drawn)
inactive: [4] 94 % of control | [5] 86 % of control | [7] 89 % of control

CC1(C)C2CCC1(C)C2C=O (stereo not drawn)
inactive: [10] 96 % of control | [11] 93 % of control | [12] 96 % of control

C/C=C/CC1(CCC(C)C)C(=O)NC(=O)NC1=O
inactive: dose: 75.0 mg/kg/injection, schedule: Q01DX001 (ip), vehicle: acetone 95 % of control | dose: 75.0 mg/kg/injection, schedule: Q01DX001 (ip), vehicle: other 101 % of control | dose: 150.0 mg/kg/injection, schedule: Q01DX001 (ip), vehicle: acetone 101 % of control | dose: 150.0 mg/kg/injection, schedule: Q01DX001 (ip), vehicle: other 101 % of control | dose: 300.0 mg/kg/injection, schedule: Q01DX001 (ip), vehicle: other 105 % of control

CCCCCCCCCCCCCCCCCC(=O)N/N=C/C=C/c1ccccc1
inactive: dose: 50.0 mg/kg/injection, schedule: Q01DX009 (ip), vehicle: Klucel (hydroxypropylcellulose) (HPC) 101 % of control | [10] 98 % of control | [11] 101 % of control and 91 % of control | [12] 100 % of control

CNC(=O)NNc1ccccc1
inactive: [2] 101 % of control | [3] 101 % of control | [6] 105 % of control

Clc1ccc(CSc2ncc(Br)c(Cl)n2)cc1
inactive: dose: 100.0 mg/kg/injection, schedule: Q01DX Z (ip), vehicle: methylcellulose (MC) 90 % of control | dose: 200.0 mg/kg/injection, schedule: Q01DX Z (ip), vehicle: methylcellulose (MC) 99 % of control

CC1CCc2c(O)ccc(O)c21 (stereo not drawn)
inactive: dose: 100.0 mg/kg/injection, schedule: Q01DX001 (ip), vehicle: carboxymethylcellulose (CMC) 102 % of control | dose: 200.0 mg/kg/injection, schedule: Q01DX001 (ip), vehicle: carboxymethylcellulose (CMC) 96 % of control | dose: 400.0 mg/kg/injection, schedule: Q01DX001 (ip), vehicle: carboxymethylcellulose (CMC) 94 % of control

c1ccc(-c2cc(-c3ccccc3)cc(-c3ccccc3)c2)cc1
inactive: [13] 98 % of control | [14] 95 % of control | dose: 6.25 mg/kg/injection, schedule: Q01DX009 (ip), vehicle: saline 93 % of control

O=C(Nc1ccccc1C(F)(F)F)c1ccc(F)cc1
inactive: [8] 99 % of control | [10] 95 % of control and 103 % of control | dose: 100.0 mg/kg/injection, schedule: Q04DX002 (ip), vehicle: Klucel (hydroxypropylcellulose) (HPC) 98 % of control and 121 % of control | [15] 105 % of control | [9] 95 % of control | [11] 94 % of control and 95 % of control | dose: 200.0 mg/kg/injection, schedule: Q04DX002 (ip), vehicle: Klucel (hydroxypropylcellulose) (HPC) 100 % of control and 101 % of control | [16] 100 % of control | dose: 400.0 mg/kg/injection, schedule: Q01DX001 (ip), vehicle: Klucel (hydroxypropylcellulose) (HPC) 104 % of control | [12] 95 % of control and 97 % of control | dose: 400.0 mg/kg/injection, schedule: Q04DX002 (ip), vehicle: Klucel (hydroxypropylcellulose) (HPC) 96 % of control and 100 % of control | [17] 113 % of control

COC(=O)Nc1cccc(NC(=O)C(=O)O)c1
inactive: dose: 25.0 mg/kg/injection, schedule: Q01DX009 (ip), vehicle: saline with Tween-80 105 % of control | dose: 25.0 mg/kg/injection, schedule: Q04DX003 (ip), vehicle: saline with Tween-80 107 % of control | [1] 98 % of control | dose: 50.0 mg/kg/injection, schedule: Q04DX003 (ip), vehicle: saline with Tween-80 105 % of control | [2] 102 % of control | [4] 94 % of control and 100 % of control | [5] 105 % of control

NNc1nncc(-c2ccccc2)n1
inactive: dose: 25.0 mg/kg/injection, schedule: Q01DX001 (ip), vehicle: other 100 % of control | dose: 50.0 mg/kg/injection, schedule: Q01DX001 (ip), vehicle: other 103 % of control | [18] 105 % of control

O=C(O)C(c1ccccc1)C1CCCC1 (stereo not drawn)
inactive: [1] 102 % of control | [2] 105 % of control | [15] 98 % of control | [3] 100 % of control | [16] 100 % of control | [17] 98 % of control

O=C(Cl)c1cc2ccccc2o1
inactive: [4] 89 % of control | [5] 92 % of control | [7] 95 % of control

Cc1c(CC(Cl)Cl)cc(-c2ccccc2)c2ccccc12
inactive: [15] 96 % of control | [16] 92 % of control | [17] 100 % of control

N#CCCN(C(=S)Nc1ccc(Cl)c(Cl)c1)C1CCCCC1
inactive: [10] 107 % of control | [11] 113 % of control | [12] 103 % of control

N=C(N)SCCCCSC(=N)N
inactive: dose: 25.0 mg/kg/injection, schedule: Q01DX009 (ip), vehicle: saline 92 % of control | dose: 50.0 mg/kg/injection, schedule: Q01DX009 (ip), vehicle: saline 97 % of control | dose: 100.0 mg/kg/injection, schedule: Q01DX009 (ip), vehicle: saline 94 % of control and 106 % of control

Cc1ccccc1N=C1C(=O)Nc2ccccc21
inactive: dose: 100.0 mg/kg/injection, schedule: Q01DX001 (ip), vehicle: other 115 % of control | [18] 91 % of control | dose: 400.0 mg/kg/injection, schedule: Q01DX001 (ip), vehicle: other 107 % of control

CC1CN=C(c2ccc(NC(=O)c3ccc(C(=O)Nc4ccc(C5=NCC(C)CN5)cc4)cc3)cc2)NC1 (stereo not drawn)
inactive: dose: 0.12 mg/kg/injection, schedule: Q01DX015 (ip), vehicle: water 100 % of control | dose: 0.25 mg/kg/injection, schedule: Q01DX015 (ip), vehicle: water 102 % of control | dose: 0.5 mg/kg/injection, schedule: Q01DX015 (ip), vehicle: water 104 % of control | dose: 1.0 mg/kg/injection, schedule: Q01DX015 (ip), vehicle: water 104 % of control | dose: 2.0 mg/kg/injection, schedule: Q01DX015 (ip), vehicle: water 122 % of control | dose: 4.0 mg/kg/injection, schedule: Q01DX015 (ip), vehicle: water 114 % of control

CC[N+](C)(CC)CCNC(=O)Nc1ccc(C)c(NC(=O)NCC[N+](C)(CC)CC)c1
inactive: [13] 97 % of control | [14] 95 % of control | dose: 3.12 mg/kg/injection, schedule: Q04DX002 (ip), vehicle: saline 90 % of control

COC1c2c(nc3ccccc3c2C(N)=O)-c2ccccc2C1(C)C (stereo not drawn)
inactive: [19] 89 % of control | [20] 103 % of control | dose: 400.0 mg/kg/injection, schedule: Q04DX003 (ip), vehicle: saline 94 % of control

NS(=O)(=O)c1cc([N+](=O)[O-])ccc1Cl
inactive: [4] 108 % of control | [5] 111 % of control | [7] 95 % of control

O=C(O)C(=O)c1ccccc1
inactive: [19] 92 % of control | [20] 91 % of control
